The values that follow come from patent US10654884B2 (Vitae Pharmaceuticals, Inc., priority 2014, dated 2020).

Like-named read-outs stand apart in the source and are kept apart here. Some results are limits rather than exact numbers.

Assay [1] addresses T1, human CD73 (Homo sapiens, UniProt P21589).
T1 construct: purchased R&D Systems 5795-EN-010
T1 sequence (P21589 27-549): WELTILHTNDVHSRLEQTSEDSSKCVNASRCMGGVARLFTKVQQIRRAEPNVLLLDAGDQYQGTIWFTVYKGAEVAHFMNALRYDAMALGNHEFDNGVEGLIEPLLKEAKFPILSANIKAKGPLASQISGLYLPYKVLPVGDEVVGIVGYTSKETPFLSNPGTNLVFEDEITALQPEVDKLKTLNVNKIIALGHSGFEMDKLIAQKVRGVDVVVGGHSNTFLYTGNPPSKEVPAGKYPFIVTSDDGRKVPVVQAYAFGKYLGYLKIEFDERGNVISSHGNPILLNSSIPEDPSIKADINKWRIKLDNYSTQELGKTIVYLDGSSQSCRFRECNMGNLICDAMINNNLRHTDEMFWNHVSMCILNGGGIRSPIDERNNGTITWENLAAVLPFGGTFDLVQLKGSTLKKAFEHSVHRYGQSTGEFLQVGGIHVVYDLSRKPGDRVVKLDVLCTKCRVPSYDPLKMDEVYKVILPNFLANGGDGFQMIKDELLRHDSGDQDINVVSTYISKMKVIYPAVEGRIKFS
The assay can be described thus: Inhibition of 5′-Nucleotidase Activity of CD73 (Assay 1). The conditions noted are these: human CD73 4 ng/ml, 50 μM CMP, 20 min at RT, malachite green readout; read-out: Assay 1: IC50, inhibition of 5′-nucleotidase activity of CD73. The format is biochemical. On the procedure:
Inhibition of 5′-Nucleotidase Activity of CD73 (Assay 1)
Compounds of the present invention were tested for the ability to inhibit CD73 enzyme activity. Tested compounds were dissolved in DMSO (50× final concentration), and 3.2 μL of the solutions added to 96-well polystyrene plates. To these wells were added, 100 μL of human CD73 (R&D Systems Cat. No. 5795-EN-010) and 57 μL of cytidine-5′-monophosphate (CMP) solutions in assay buffer (25 mM Tris-HCl, pH 7.4, 0.005% Brij-35) were added to achieve final concentrations in the assay of 4 ng/ml CD73 and 50 μM of CMP. The assay mixture was incubated for 20 min at RT. The reaction was stopped by addition of 40 μL of malachite green reagent which was prepared by mixing together 10 ml 2M H2SO4, 2.5 ml of 15% ammonium molybdate and 0.2 ml of 11% Tween-20. The mixture was agitated vigorously for 10 min at RT, and absorbance at 620 nm was determined on a microplate spectrophotometer. […] The IC50 values were derived using a non-linear 4 parameter logistic model (XLFit software, IDBS) and correspond to the inflection points on dose-response curves.

The target of assay [2] is T2, CD73 on U138 neuroglioma cells (Homo sapiens, UniProt P21589).
T2 construct: U138 neuroglioma cells, which express CD73 on their surface; endogenous in cells; host or cells: U138 neuroglioma cells (ATCC)
T2 sequence (P21589 27-549): T1 sequence (P21589 27-549)
The assay can be described thus: Inhibition of Ecto-5′-Nucleotidase Activity in U138 Neuroglioma Cells (Assay 2). The assay is classed as cell-based. On the procedure:
Inhibition of Ecto-5′-Nucleotidase Activity in U138 Neuroglioma Cells (Assay 2)
U138 cells were obtained from the American Type Culture Collection (ATCC) (Manassas, Va.), and cultured in complete growth media (DMEM, 10% FBS, 1 mM L-glutamine, 100 U penicillin-streptomycin) at 37° C., 5% CO2. The day before the experiment, cells were seeded at 2,500 cells/well in 100 μL of complete media into 96-well plates. Cells were washed twice with 200 μL of assay buffer (20 mM HEPES, pH 7.4, 137 mM NaCl, 5.4 mM KCl, 1.3 mM CaCl2, 4.2 mM NaHCO3, 1 mg/mL glucose) to remove residual inorganic phosphate. After washing, assays contained serial dilutions of test compounds and 50 μM of cytidine-5′-monophosphate (CMP) in a total volume of 200 μL of assay buffer, with a final DMSO concentration ≤0.1%. After 2 hr at 37° C., 5% CO2, 100 μL of supernatant was removed from the cells and the concentration of inorganic phosphate was determined using malachite green reagent. IC50 values for test compounds were determined from nonlinear regression fits of the data using XLfit (IDBS).

The mark [3] stands for this setting: 50 μM CMP, 2 hr at 37° C., malachite green readout, read-out: Assay 2: IC50, inhibition of ecto-5′-nucleotidase activity in U138 neuroglioma cells.

On to `CCOC(=O)[C@H](OC[C@H]1O[C@@H](n2cnc3c(N)nc(Cl)nc32)[C@H](O)[C@@H]1O)P(=O)(O)O` (single isomer, unassigned) [1, isomer 1], for which the IC50 in assay [1] and in assay [2] (setting [3]) was less than 100 nM throughout.

Turning to `CCOC(=O)[C@@H](OC[C@H]1O[C@@H](n2cnc3c(N)nc(Cl)nc32)[C@H](O)[C@@H]1O)P(=O)(O)O` (single isomer, unassigned) [1, isomer 2], the IC50 in assay [1] and in assay [2] (setting [3]) was 100 to 1000 nM each time. Take `CCOC(=O)[C@](C)(OC[C@H]1O[C@@H](n2cnc3c(N)nc(Cl)nc32)[C@H](O)[C@@H]1O)P(=O)(O)O` (single isomer, unassigned) [Example 9]: the figures for the IC50 in assay [1] and in assay [2] (setting [3]) were less than 100 nM and 100 to 1000 nM, respectively.

In the case of `CCOC(=O)[C@@](C)(OC[C@H]1O[C@@H](n2cnc3c(N)nc(Cl)nc32)[C@H](O)[C@@H]1O)P(=O)(O)O` (single isomer, unassigned) [Example 9a], the IC50 in assay [1] and in assay [2] (setting [3]) was 100 to 1000 nM throughout. `CS(=O)(=O)C(OC[C@H]1O[C@@H](n2cnc3c(N)nc(Cl)nc32)[C@H](O)[C@@H]1O)P(=O)(O)O` (single isomer, unassigned) [Example 10]: the IC50 in assay [1] and in assay [2] (setting [3]) was 100 to 1000 nM in each case. Take `CCS(=O)(=O)C(OC[C@H]1O[C@@H](n2cnc3c(N)nc(Cl)nc32)[C@H](O)[C@@H]1O)P(=O)(O)O` (single isomer, unassigned) [Example 11]: the IC50 in assay [1] is less than 100 nM; in assay [2] (setting [3]) it was 100 to 1000 nM. `CCS(=O)(=O)C(OC[C@H]1O[C@@H](n2cnc3c(N)nc(Cl)nc32)[C@H](O)[C@@H]1O)P(=O)(O)O` (single isomer, unassigned) [Example 11a]: the IC50 in assay [1] is 100 to 1000 nM; in assay [2] (setting [3]), more than 1000 nM.

Consider `CCCS(=O)(=O)[C@H](OC[C@H]1O[C@@H](n2cnc3c(N)nc(Cl)nc32)[C@H](O)[C@@H]1O)P(=O)(O)O` (single isomer, unassigned) [Example 12], for which the half-inhibitory concentration (IC50) in assay [1] is less than 100 nM; in assay [2] (setting [3]), 100 to 1000 nM. The like results for `CC(C)CS(=O)(=O)[C@H](OC[C@H]1O[C@@H](n2cnc3c(N)nc(Cl)nc32)[C@H](O)[C@@H]1O)P(=O)(O)O` (single isomer, unassigned) [Example 13] were, in that order, less than 100 nM and 100 to 1000 nM. Taken in the same sequence, the figures for `CC(C)COC(=O)[C@H](OC[C@H]1O[C@@H](n2cnc3c(N)nc(Cl)nc32)[C@H](O)[C@@H]1O)P(=O)(O)O` (single isomer, unassigned) [Example 14] were less than 100 nM and less than 100 nM.

As for `CC(C)COC(=O)[C@@H](OC[C@H]1O[C@@H](n2cnc3c(N)nc(Cl)nc32)[C@H](O)[C@@H]1O)P(=O)(O)O` (single isomer, unassigned) [Example 14a], the 50% inhibitory concentration (IC50) in assay [1] and in assay [2] (setting [3]) was 100 to 1000 nM each time.

Take `CC(C)(C)OC(=O)[C@H](OC[C@H]1O[C@@H](n2cnc3c(N)nc(Cl)nc32)[C@H](O)[C@@H]1O)P(=O)(O)O` (single isomer, unassigned) [Example 15]: the IC50 in assay [1] and in assay [2] (setting [3]) was less than 100 nM each time. For the compound `CC(C)(C)OC(=O)[C@@H](OC[C@H]1O[C@@H](n2cnc3c(N)nc(Cl)nc32)[C@H](O)[C@@H]1O)P(=O)(O)O` (single isomer, unassigned) [Example 15a], the IC50 in assay [1] and in assay [2] (setting [3]) was 100 to 1000 nM in each case.

With `Nc1nc(Cl)nc2c1ncn2[C@@H]1O[C@H](CO[C@@H](C(=O)OCc2ccccc2)P(=O)(O)O)[C@@H](O)[C@H]1O` (single isomer, unassigned) [Example 16], the half-maximal inhibitory concentration (IC50) in assay [1] and in assay [2] (setting [3]) was less than 100 nM throughout. For the compound `CC(C)CNC(=O)[C@H](OC[C@H]1O[C@@H](n2cnc3c(N)nc(Cl)nc32)[C@H](O)[C@@H]1O)P(=O)(O)O` (single isomer, unassigned) [Example 17], the IC50 in assay [1] and in assay [2] (setting [3]) was less than 100 nM each time.

As for `CC(C)CNC(=O)[C@@H](OC[C@H]1O[C@@H](n2cnc3c(N)nc(Cl)nc32)[C@H](O)[C@@H]1O)P(=O)(O)O` (single isomer, unassigned) [Example 17a], the IC50 in assay [1] is 100 to 1000 nM; in assay [2] (setting [3]), less than 100 nM. Taken in the same sequence, the figures for `CCNC(=O)[C@H](OC[C@H]1O[C@@H](n2cnc3c(N)nc(Cl)nc32)[C@H](O)[C@@H]1O)P(=O)(O)O` (single isomer, unassigned) [Example 18] were less than 100 nM and 100 to 1000 nM. Taken in the same sequence, the figures for `CCNC(=O)[C@@H](OC[C@H]1O[C@@H](n2cnc3c(N)nc(Cl)nc32)[C@H](O)[C@@H]1O)P(=O)(O)O` (single isomer, unassigned) [Example 18a] were 100 to 1000 nM and less than 100 nM. For `CC(C)(C)NC(=O)[C@H](OC[C@H]1O[C@@H](n2cnc3c(N)nc(Cl)nc32)[C@H](O)[C@@H]1O)P(=O)(O)O` (single isomer, unassigned) [Example 19], the IC50 in assay [1] and in assay [2] (setting [3]) was less than 100 nM each time. As to `CC(C)(C)NC(=O)[C@@H](OC[C@H]1O[C@@H](n2cnc3c(N)nc(Cl)nc32)[C@H](O)[C@@H]1O)P(=O)(O)O` (single isomer, unassigned) [Example 19a], the IC50 in assay [1] and in assay [2] (setting [3]) was 100 to 1000 nM each time. Take `Cc1nnc(C(OC[C@H]2O[C@@H](n3cnc4c(N)nc(Cl)nc43)[C@H](O)[C@@H]2O)P(=O)(O)O)o1` (single isomer, unassigned) [Example 21]: the results for the IC50 in assay [1] and in assay [2] (setting [3]) were less than 100 nM and 100 to 1000 nM, respectively. Taken in the same sequence, the figures for `Cc1nnc(C(OC[C@H]2O[C@@H](n3cnc4c(N)nc(Cl)nc43)[C@H](O)[C@@H]2O)P(=O)(O)O)o1` (single isomer, unassigned) [Example 21a] were 100 to 1000 nM and more than 1000 nM.

With `CCOC(=O)[C@H](OC[C@H]1O[C@@H](n2cnc3c(NC4CC4)nc(Cl)nc32)[C@H](O)[C@@H]1O)P(=O)(O)O` (single isomer, unassigned) [Example 22], the IC50 in assay [1] and in assay [2] (setting [3]) was less than 100 nM each time.

Take `Nc1ncnc2c1ncn2[C@@H]1O[C@H](COP(=O)(O)CP(=O)(O)O)[C@@H](O)[C@H]1O` [APCP, adenosine 5′-(α,β-methylene)diphosphate, reference compound]: the IC50 in assay [2] (IC50 value for APCP (standard), standard in each experiment, typical range) lay within 12 to 25 nM. Turning to `O=C(O)C(OC[C@H]1C[C@@H](n2cnc3cccc(Cl)c3c2=O)[C@H](O)[C@@H]1O)P(=O)(O)O` (stereo partly drawn) [Example 71, 2-(((1R,2R,3S,4R)-4-(5-chloro-4-oxoquinazolin-3(4H)-yl)-2,3-dihydroxycyclopentyl)methoxy)-2-phosphonoacetic acid], the IC50 in assay [1] was more than 1000 nM. The same measure, in the same setting: under `O=C(O)C(OC[C@H]1C[C@@H](n2cnc3cccc(Cl)c3c2=O)[C@H](O)[C@@H]1O)C(=O)O` [Example 74, 2-(((1R,2R,3S,4R)-4-(5-chloro-4-oxoquinazolin-3(4H)-yl)-2,3-dihydroxycyclopentyl)methoxy)malonic acid] stands more than 1000 nM. `CCNC(=O)C(OC[C@H]1C[C@@H](n2cnc3c(NCC)ncnc32)[C@H](O)[C@@H]1O)P(=O)(O)O` (stereo partly drawn) [Example 75, (2-(ethylamino)-1-(((1R,2R,3S,4R)-4-(6-(ethylamino)-9H-purin-9-yl)-2,3-dihydroxycyclopentyl)methoxy)-2-oxoethyl)phosphonic Acid]: the concentration for half-maximal inhibition (IC50) in assay [1] was more than 1000 nM.
